Source: patent US11103488B2, “Methods of treating autoimmune, respiratory and inflammatory disorders by inhalation of roflumilast N-oxide” (Incozen Therapeutics Pvt. Ltd., priority 2013, dated 2021)
Where two headings read alike, the source gives them in different places.

What was measured:
[1] = 14-day repeat dose safety study; type: in vivo, Wistar Rats; conditions: Intratracheal, 1000 ug/kg/day, 14 days
Method: In order to determine the safety of roflumilast N-oxide by inhalation compared to roflumilast by oral administration, a 7- and 14-day repeat dose safety study was conducted according to the protocol given in Table 5 below.

[2] = Lung microsome metabolic stability, human; type: in vitro ADME; conditions: 1 μM test item, 60 minutes, NADPH
Method: (§1) Metabolic stability studies were conducted using rat, dog and human lung microsomes. The protocol for the studies with rat, dog, and human lung microsomes (from Xenotech, USA) is provided below.
(§2) 0.4 mg protein was preincubated with 2 mM NADPH (cofactor) in phosphate buffer (pH˜7.4) for 15 minutes at […] and then added with 1 μM test item and incubated further for 60 minutes in triplicate. The reaction mixture was terminated with methanol containing an internal standard and centrifuged further to analyze the test item remaining in the supernatant by LC-MS/MS. The percent parent compound remaining was calculated in comparison with similar samples terminated at 0 minutes.

[3] = Lung microsome metabolic stability, rat; type: in vitro ADME; conditions: rat lung microsomes, 1 μM test item, 60 minutes, NADPH
Method: as §1, §2

[4] = Pulmonary kinetics by intratracheal route, single dose; type: in vivo, Wistar rats; conditions: single dose 1 mg/kg IT
Method: (§3) Male and female Wistar rats were weighed and randomized for groups for various time points. Roflumilast N-oxide was prepared as a suspension in a suitable vehicle for intratracheal administration. For intratracheal dosing, animals were anesthetized with ketamine (50 mg/kg; i.p.) and roflumilast N-oxide was administered via an Intratracheal Microsprayer® Aerosolizer for Rat with a 0.5 ml glass syringe (Model IA-1B-R-GL500) (Penn Century, US). A volume level of 0.5 ml/kg was administered into the airway system of the rat at a dose of 1.0 mg/kg for the single dose and multiple dose study. The animals were kept under normal regular diet conditions and rat chew diet was provided ad libitum throughout the study. The blood and lung samples (all collections each of 150 μl from each animal) were collected according to the sampling schedule. Blood samples were collected from orbital sinus into the microfuge tubes containing dipotassium EDTA as an anticoagulant. Blood samples were centrifuged immediately with a speed of 1000 g for 10 minutes at 4° C. and separated plasma samples were frozen at below −80° C. and stored until analysis. The plasma and lung concentrations of roflumilast N-oxide in all samples were analyzed by LC-MS/MS (using X-Calibur 2.0.7 software) as per the established method. The samples below the lower limit of quantification (LOQ) were mentioned as (BLQ) below level of quantification in raw data and the results were tabulated accordingly. Pharmacokinetic parameters Cmax, AUC0-t, AUC0-∞, Tmax, t1/2, Kel, VZ, and CLZ were estimated for the above concentrations using WinNonlin (Phoenix 6.1 software) and the results were tabulated. Pharmacokinetic parameters in plasma were calculated from concentration data as ng/ml. Cmax and AUC values were reported in terms of ng/ml and ng·h/ml, respectively.
(§4) Pharmacokinetic parameters in the lungs were calculated from concentration data as ng/g. Cmax and AUC values were reported in terms of ng/g and ng·h/g, respectively. The lung to plasma concentration ratio was calculated by assuming equal to 1 the plasma density. The time-mean plasma concentration plots for roflumilast N-oxide were done using Graph pad Prism 5.02 software.

[5] = Pulmonary kinetics by intratracheal route, multiple dose (7 days); type: in vivo, Wistar rats; conditions: 1 mg/kg IT for 7 days; for Tmax / half-life / AUC(0-inf) / AUC(0-t) / Cmax: 1 mg/kg
Method: as §3, §4

neutrophil infiltration = experiment: Acute cigarette smoke induced cell infiltration, neutrophils; type: in vivo, female Balb/c mice; conditions: for Percent inhibition in neutrophil infiltration: intranasal, day 1 to day 4
Method: Animals were acclimatized for seven days prior to the start of the experiment. The animals were randomly distributed to various groups based on their body weight. For oral administration of roflumilast and for intranasal administration of roflumilast N-oxide, roflumilast or roflumilast N-oxide were prepared as a suspension in a suitable vehicle. On day 1, mice were administered roflumilast N-oxide or roflumilast and after 1 hour, the animals were placed in a whole body exposure box. On day 1 and day 2, the mice were exposed to the mainstream smoke of 6 cigarettes, and 8 cigarettes on day 3 and day 4. Exposure to the smoke of each cigarette lasted for 10 minutes (cigarettes were completely burned in the first two minutes and followed by an air flow with animal ventilator, then 20 minutes exposure to fresh room air). After every second cigarette an additional break of 20 minutes with exposure to fresh room air was conducted. Control animals were exposed to room air chamber. From day 1 to day 4, the animals were administered roflumilast N-oxide or roflumilast. On day 5, 24 hours after the last cigarette smoke (CS) exposure, the animals were exsanguinated under anaesthesia, the trachea were cannulated and the lungs were lavaged with 0.5-ml aliquots of heparinised PBS (1 unit/ml) four times through tracheal cannula (total volume 2 ml). Bronchioalveolar (BAL) collected was stored at 2-8° C. until assayed for total cell and differential leukocyte count. BAL fluid was centrifuged (500×g for 10 minutes) and the resulting cell pellet was resuspended in 0.5 ml of heparinised saline. The total number of white blood cells was determined in BAL fluid and adjusted to 1×10^6 cell/ml. Differential cell count was calculated manually by diff-quick staining. Forty microliters of the cell suspension was centrifuged using cytospin 3 to prepare a cell smear. The cell smear was stained with a blood staining solution for differentiation and microscopically observed to identify cell type according to their morphological characteristics. The number of each cell type among 300 white blood cells in the cell smear were determined and expressed as a percentage, and the number of neutrophils and macrophages in each BAL fluid were calculated.
Roflumilast and roflumilast N-oxide as a suspension in polysorbate 80 (1% v/v) and methyl cellulose (MC) (0.5% w/v) were used for oral and intranasal administration respectively.

**Q.** Which MORTALITY [1] does the source give for `O=C(Nc1c(Cl)c[n+]([O-])cc1Cl)c1ccc(OC(F)F)c(OCC2CC2)c1` [Roflumilast N-oxide] here?
**A.** No Mortality

**Q.** What about the “Percent Parent Compound Remaining, Human Non Smoker” value ([2]; human non smoker lung microsomes) of the same molecule?
**A.** 91.5%

**Q.** And the “Percent Parent Compound Remaining, Human Smoker” value ([2]; human smoker lung microsomes)?
**A.** 99.3%

**Q.** What about the “Percent Parent Compound Remaining, Rat” value [3] of the same molecule?
**A.** 100.0%

**Q.** What about the Tmax ([4]; both sexes, Wistar, rat, inhaled or intranasal, lung, read-out: Tmax, Lung, N-Oxide) of the same molecule?
**A.** 15 min

**Q.** And the half-life ([4]; both sexes, Wistar, rat, inhaled or intranasal, lung, read-out: t1/2, Lung, N-Oxide (converted))?
**A.** 152 min

**Q.** And the AUC(0-t) ([4]; both sexes, Wistar, rat, inhaled or intranasal, plasma, read-out: AUC0-t, Plasma, N-Oxide)?
**A.** 4160 ng·h/mL

**Q.** What about the Cmax ([4]; both sexes, Wistar, rat, inhaled or intranasal, plasma, read-out: Cmax, Plasma, N-Oxide) of the same molecule?
**A.** 530 ng/mL

**Q.** And the Tmax ([4]; both sexes, Wistar, rat, inhaled or intranasal, plasma, read-out: Tmax, Plasma, N-Oxide)?
**A.** 15 min

**Q.** And the half-life ([4]; both sexes, Wistar, rat, inhaled or intranasal, plasma, read-out: t1/2, Plasma, N-Oxide (converted))?
**A.** 326 min

**Q.** And the “AUC0-inf, Lung, N-Oxide” value ([4]; lung)?
**A.** 47960 ng·h/g

**Q.** What about the “AUC0-t, Lung, N-Oxide” value ([4]; lung) of the same molecule?
**A.** 47880 ng·h/g

**Q.** And the “Cmax, Lung, N-Oxide” value ([4]; lung)?
**A.** 26350 ng/g

**Q.** What about the “AUC0-inf, Lung, Day-1, N-Oxide” value ([5]; lung, Day-1) of the same molecule?
**A.** 47.96 µg·h/g

**Q.** And the “AUC0-t, Lung, Day-1, N-Oxide” value ([5]; lung, Day-1)?
**A.** 47.88 µg·h/g

**Q.** What about the “Cmax, Lung, Day-1, N-Oxide” value ([5]; lung, Day-1) of the same molecule?
**A.** 26.35 µg/g

**Q.** What about the “AUC0-inf, Lung, Day-7, N-Oxide” value ([5]; lung, Day-7) of the same molecule?
**A.** 18.04 µg·h/g

**Q.** And the “AUC0-t, Lung, Day-7, N-Oxide” value ([5]; lung, Day-7)?
**A.** 17.96 µg·h/g

**Q.** And the “AUCtau, Lung, Day-7, N-Oxide” value ([5]; lung, Day-7)?
**A.** 18.51 µg·h/g

**Q.** What about the “Cavg, Lung, Day-7, N-Oxide” value ([5]; lung, Day-7) of the same molecule?
**A.** 0.77 µg/g

**Q.** And the “Cmax, Lung, Day-7, N-Oxide” value ([5]; lung, Day-7)?
**A.** 23.15 µg/g

**Q.** And the “Cmin, Lung, Day-7, N-Oxide” value ([5]; lung, Day-7)?
**A.** 0.00 µg/g

**Q.** What about the “Cavg, Plasma, Day-7, N-Oxide” value ([5]; plasma, Day-7) of the same molecule?
**A.** 120 ng/mL

**Q.** And the “Cmin, Plasma, Day-7, N-Oxide” value ([5]; plasma, Day-7)?
**A.** 0 ng/mL

**Q.** And the AUC ([5]; both sexes, Wistar, rat, inhaled or intranasal, plasma, Day-7, read-out: AUCtau, Plasma, Day-7, N-Oxide)?
**A.** 2810 ng·h/mL

**Q.** And the Tmax ([5]; both sexes, Wistar, rat, lung, inhaled or intranasal, lung, Day-1, read-out: Tmax, Lung, Day-1, N-Oxide)?
**A.** 15 min

**Q.** And the half-life ([5]; both sexes, Wistar, rat, lung, inhaled or intranasal, lung, Day-1, read-out: t1/2, Lung, Day-1, N-Oxide (converted))?
**A.** 152 min

**Q.** And the Tmax ([5]; both sexes, Wistar, rat, lung, inhaled or intranasal, lung, Day-7, read-out: Tmax, Lung, Day-7, N-Oxide)?
**A.** 15 min

**Q.** What about the half-life ([5]; both sexes, Wistar, rat, lung, inhaled or intranasal, lung, Day-7, read-out: t1/2, Lung, Day-7, N-Oxide (converted)) of the same molecule?
**A.** 48.6 min

**Q.** And the AUC(0-inf) ([5]; both sexes, Wistar, rat, plasma, inhaled or intranasal, plasma, Day-1, read-out: AUC0-inf, Plasma, Day-1, N-Oxide)?
**A.** 4350 ng·h/mL

**Q.** And the AUC(0-t) ([5]; both sexes, Wistar, rat, plasma, inhaled or intranasal, plasma, Day-1, read-out: AUC0-t, Plasma, Day-1, N-Oxide)?
**A.** 4160 ng·h/mL

**Q.** And the Cmax ([5]; both sexes, Wistar, rat, plasma, inhaled or intranasal, plasma, Day-1, read-out: Cmax, Plasma, Day-1, N-Oxide)?
**A.** 530 ng/mL

**Q.** What about the Tmax ([5]; both sexes, Wistar, rat, plasma, inhaled or intranasal, plasma, Day-1, read-out: Tmax, Plasma, Day-1, N-Oxide) of the same molecule?
**A.** 15 min

**Q.** What about the half-life ([5]; both sexes, Wistar, rat, plasma, inhaled or intranasal, plasma, Day-1, read-out: t1/2, Plasma, Day-1, N-Oxide (converted)) of the same molecule?
**A.** 326 min

**Q.** What about the AUC(0-inf) ([5]; both sexes, Wistar, rat, plasma, inhaled or intranasal, plasma, Day-7, read-out: AUC0-inf, Plasma, Day-7, N-Oxide) of the same molecule?
**A.** 2390 ng·h/mL

**Q.** And the AUC(0-t) ([5]; both sexes, Wistar, rat, plasma, inhaled or intranasal, plasma, Day-7, read-out: AUC0-t, Plasma, Day-7, N-Oxide)?
**A.** 2250 ng·h/mL

**Q.** What about the Cmax ([5]; both sexes, Wistar, rat, plasma, inhaled or intranasal, plasma, Day-7, read-out: Cmax, Plasma, Day-7, N-Oxide) of the same molecule?
**A.** 560 ng/mL

**Q.** And the Tmax ([5]; both sexes, Wistar, rat, plasma, inhaled or intranasal, plasma, Day-7, read-out: Tmax, Plasma, Day-7, N-Oxide)?
**A.** 60 min

**Q.** And the half-life ([5]; both sexes, Wistar, rat, plasma, inhaled or intranasal, plasma, Day-7, read-out: t1/2, Plasma, Day-7, N-Oxide (converted))?
**A.** 91.8 min

**Q.** And the ED50 (neutrophil infiltration; Mus musculus, Neutrophil, inhaled or nasal, intranasal administration, read-out: 50% inhibition (ED50) dose, neutrophil infiltration)?
**A.** 0.038 mg/kg

**Q.** What about the “Percent inhibition in neutrophil infiltration” value (“Percent inhibition” below) (neutrophil infiltration; 0.003 mg/kg) of the same molecule?
**A.** 26.60%

**Q.** What about the “Percent inhibition” value (neutrophil infiltration; 0.03 mg/kg) of the same molecule?
**A.** 59.28%

**Q.** What about the “Percent inhibition” value (neutrophil infiltration; 0.3 mg/kg) of the same molecule?
**A.** 66.49%

**Q.** What about the “Percent inhibition” value (neutrophil infiltration; 3 mg/kg) of the same molecule?
**A.** 72.08%
